Reference: publication PMC7522982, “PKIS deep dive yields a chemical starting point for dark kinases and a cell active BRSK2 inhibitor” (Scientific Reports, 2020)

Legend:
PIM2 = PIM2 (Homo sapiens, UniProt Q9P1W9); assay: Eurofins kinase enzymatic radiometric assay; assay type: biochemical; set-up: purchased Eurofins; conditions: Km of ATP, 9-point curve in duplicate
Description: (§1) Due to our interest in the activity of GW296115 on several understudied IDG kinases, we collected full dose–response curves for all wild type kinases inhibited ≥ 75% in the DiscoverX panel that were offered by Eurofins. Having data in orthogonal formats is a powerful way to confirm inhibitory activity and adds rigor to our results. Eurofins has kinase enzymatic radiometric assays for 35 of the kinases on this list (Table S2) and a kinase enzymatic LANCE assay for one additional kinase (MAP2K5/MEK5).
(§2) Eurofins kinase enzymatic radiometric assays were carried out at the Km of ATP in dose–response (9-pt curve in duplicate) for each kinase for which it was offered.

SGK3 = SGK3 (Homo sapiens, UniProt Q96BR1); assay: Eurofins kinase enzymatic radiometric assay; assay type: biochemical; set-up: purchased Eurofins; conditions: Km of ATP, 9-point curve in duplicate
Description: as §1, §2

DMPK = DMPK (Homo sapiens, UniProt Q09013); assay: Eurofins kinase enzymatic radiometric assay; assay type: biochemical; set-up: purchased Eurofins; conditions: Km of ATP, 9-point curve in duplicate
Sequence of DMPK (Q09013 whole entry): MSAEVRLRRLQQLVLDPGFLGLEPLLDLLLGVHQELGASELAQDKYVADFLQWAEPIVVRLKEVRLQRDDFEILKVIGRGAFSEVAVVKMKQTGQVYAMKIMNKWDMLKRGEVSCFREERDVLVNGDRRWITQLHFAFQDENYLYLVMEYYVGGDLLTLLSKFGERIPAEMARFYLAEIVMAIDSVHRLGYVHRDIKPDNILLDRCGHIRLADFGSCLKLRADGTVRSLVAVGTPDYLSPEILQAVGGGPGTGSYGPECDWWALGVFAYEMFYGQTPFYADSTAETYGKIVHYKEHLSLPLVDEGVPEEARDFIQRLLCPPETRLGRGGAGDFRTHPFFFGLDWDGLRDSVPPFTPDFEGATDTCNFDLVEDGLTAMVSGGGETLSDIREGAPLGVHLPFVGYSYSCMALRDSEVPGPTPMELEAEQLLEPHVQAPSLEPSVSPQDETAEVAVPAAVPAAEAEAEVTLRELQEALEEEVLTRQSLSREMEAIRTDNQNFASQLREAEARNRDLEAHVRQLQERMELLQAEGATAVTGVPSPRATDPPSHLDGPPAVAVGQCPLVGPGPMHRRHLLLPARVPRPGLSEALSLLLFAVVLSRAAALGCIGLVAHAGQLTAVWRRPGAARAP
Description: as §1, §2

AURKC = AURKC (Homo sapiens, UniProt Q9UQB9); assay: Eurofins kinase enzymatic radiometric assay; assay type: biochemical; set-up: purchased Eurofins; conditions: Km of ATP, 9-point curve in duplicate
Description: as §1, §2

AXL = AXL (Homo sapiens, UniProt P30530); assay: Eurofins kinase enzymatic radiometric assay; assay type: biochemical; set-up: purchased Eurofins; conditions: Km of ATP, 9-point curve in duplicate
Description: as §1, §2

DAPK1 = DAPK1 (Homo sapiens, UniProt P53355); assay: Eurofins kinase enzymatic radiometric assay; assay type: biochemical; set-up: purchased Eurofins; conditions: Km of ATP, 9-point curve in duplicate
Description: as §1, §2

RPS6KA6/RSK4 = RPS6KA6/RSK4 (Homo sapiens, UniProt Q9UK32); assay: Eurofins kinase enzymatic radiometric assay; assay type: biochemical; set-up: purchased Eurofins; conditions: Km of ATP, 9-point curve in duplicate
Description: as §1, §2

ROS1 = ROS1 (Homo sapiens, UniProt P08922); assay: Eurofins kinase enzymatic radiometric assay; assay type: biochemical; set-up: purchased Eurofins; conditions: Km of ATP, 9-point curve in duplicate
Description: as §1, §2

DAPK3/ZIPK = DAPK3/ZIPK (Homo sapiens, UniProt O43293); assay: Eurofins kinase enzymatic radiometric assay; assay type: biochemical; set-up: purchased Eurofins; conditions: Km of ATP, 9-point curve in duplicate
Description: as §1, §2

PRKG2/PKG2 = PRKG2/PKG2 (Homo sapiens, UniProt Q13237); assay: Eurofins kinase enzymatic radiometric assay; assay type: biochemical; set-up: purchased Eurofins; conditions: Km of ATP, 9-point curve in duplicate
Description: as §1, §2

LRRK2 = LRRK2 (Homo sapiens, UniProt Q5S007); assay: Eurofins kinase enzymatic radiometric assay; assay type: biochemical; set-up: purchased Eurofins; conditions: Km of ATP, 9-point curve in duplicate
Sequence of LRRK2 (Q5S007 whole entry): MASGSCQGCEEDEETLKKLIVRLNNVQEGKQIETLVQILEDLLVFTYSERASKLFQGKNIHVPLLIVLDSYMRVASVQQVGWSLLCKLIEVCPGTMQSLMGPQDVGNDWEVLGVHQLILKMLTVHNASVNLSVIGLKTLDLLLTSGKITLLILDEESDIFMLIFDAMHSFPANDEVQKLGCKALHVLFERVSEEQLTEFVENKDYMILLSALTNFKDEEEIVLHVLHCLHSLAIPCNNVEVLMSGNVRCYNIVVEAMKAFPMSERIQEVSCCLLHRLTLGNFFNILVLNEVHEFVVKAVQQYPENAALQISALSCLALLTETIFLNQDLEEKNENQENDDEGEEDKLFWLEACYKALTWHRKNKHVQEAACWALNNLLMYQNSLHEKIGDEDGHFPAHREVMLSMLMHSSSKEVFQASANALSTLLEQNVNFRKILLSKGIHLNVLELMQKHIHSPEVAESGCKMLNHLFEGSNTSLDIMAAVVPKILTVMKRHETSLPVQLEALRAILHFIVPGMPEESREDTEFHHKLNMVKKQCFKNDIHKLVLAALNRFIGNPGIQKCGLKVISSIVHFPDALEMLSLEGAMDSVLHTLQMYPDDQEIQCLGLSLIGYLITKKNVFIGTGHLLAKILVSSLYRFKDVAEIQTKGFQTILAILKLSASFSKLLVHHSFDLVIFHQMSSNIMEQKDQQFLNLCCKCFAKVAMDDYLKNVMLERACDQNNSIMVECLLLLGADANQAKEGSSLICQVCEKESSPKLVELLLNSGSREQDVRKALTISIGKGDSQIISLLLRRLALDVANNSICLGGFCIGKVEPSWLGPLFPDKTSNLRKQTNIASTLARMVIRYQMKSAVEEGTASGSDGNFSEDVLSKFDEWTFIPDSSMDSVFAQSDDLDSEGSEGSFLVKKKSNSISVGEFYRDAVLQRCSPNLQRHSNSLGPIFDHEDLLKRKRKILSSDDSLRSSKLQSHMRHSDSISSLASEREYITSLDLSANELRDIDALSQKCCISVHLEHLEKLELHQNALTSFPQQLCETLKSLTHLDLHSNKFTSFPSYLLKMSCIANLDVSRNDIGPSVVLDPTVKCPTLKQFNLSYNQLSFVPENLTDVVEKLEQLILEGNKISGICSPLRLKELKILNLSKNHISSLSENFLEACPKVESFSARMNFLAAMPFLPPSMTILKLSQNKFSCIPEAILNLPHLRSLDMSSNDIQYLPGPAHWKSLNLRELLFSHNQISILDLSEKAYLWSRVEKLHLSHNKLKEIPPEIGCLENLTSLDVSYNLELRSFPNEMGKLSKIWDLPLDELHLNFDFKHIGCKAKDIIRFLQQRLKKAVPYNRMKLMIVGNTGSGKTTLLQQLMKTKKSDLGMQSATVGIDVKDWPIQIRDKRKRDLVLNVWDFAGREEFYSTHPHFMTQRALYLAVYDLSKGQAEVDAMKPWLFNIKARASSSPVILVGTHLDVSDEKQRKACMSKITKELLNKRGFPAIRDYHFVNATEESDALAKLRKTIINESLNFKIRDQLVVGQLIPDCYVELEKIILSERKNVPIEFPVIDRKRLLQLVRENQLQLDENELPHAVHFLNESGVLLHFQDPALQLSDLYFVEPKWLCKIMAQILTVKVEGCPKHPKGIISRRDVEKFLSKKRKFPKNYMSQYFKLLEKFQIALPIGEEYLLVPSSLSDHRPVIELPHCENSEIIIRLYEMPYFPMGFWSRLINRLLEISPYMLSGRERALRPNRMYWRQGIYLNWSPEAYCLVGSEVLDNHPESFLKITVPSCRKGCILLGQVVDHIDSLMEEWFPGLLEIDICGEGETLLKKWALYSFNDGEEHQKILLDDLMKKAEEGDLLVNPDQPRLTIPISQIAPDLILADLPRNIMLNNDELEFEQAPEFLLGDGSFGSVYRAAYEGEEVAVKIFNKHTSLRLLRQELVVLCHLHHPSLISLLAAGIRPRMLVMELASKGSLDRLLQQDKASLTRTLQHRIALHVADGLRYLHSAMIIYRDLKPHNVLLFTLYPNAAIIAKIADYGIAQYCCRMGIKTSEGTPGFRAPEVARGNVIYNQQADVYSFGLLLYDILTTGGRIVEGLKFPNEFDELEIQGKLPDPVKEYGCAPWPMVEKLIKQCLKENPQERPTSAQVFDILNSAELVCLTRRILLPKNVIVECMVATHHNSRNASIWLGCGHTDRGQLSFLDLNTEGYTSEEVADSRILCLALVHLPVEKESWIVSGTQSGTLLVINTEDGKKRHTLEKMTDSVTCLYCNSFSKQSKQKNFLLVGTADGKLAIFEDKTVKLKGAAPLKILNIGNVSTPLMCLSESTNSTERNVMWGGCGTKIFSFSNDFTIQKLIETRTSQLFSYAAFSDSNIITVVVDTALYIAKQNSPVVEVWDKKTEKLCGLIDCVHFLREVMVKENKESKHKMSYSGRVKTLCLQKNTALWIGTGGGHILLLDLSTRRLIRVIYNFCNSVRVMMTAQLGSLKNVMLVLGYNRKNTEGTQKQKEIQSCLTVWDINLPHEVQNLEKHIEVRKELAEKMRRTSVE
Description: as §1, §2

DAPK2 = DAPK2 (Homo sapiens, UniProt Q9UIK4); assay: Eurofins kinase enzymatic radiometric assay; assay type: biochemical; set-up: purchased Eurofins; conditions: Km of ATP, 9-point curve in duplicate
Description: as §1, §2

STK17A/DRAK1 = STK17A/DRAK1 (Homo sapiens, UniProt Q9UEE5); assay: Eurofins kinase enzymatic radiometric assay; assay type: biochemical; set-up: purchased Eurofins; conditions: Km of ATP, 9-point curve in duplicate
Sequence of STK17A/DRAK1 (Q9UEE5 whole entry): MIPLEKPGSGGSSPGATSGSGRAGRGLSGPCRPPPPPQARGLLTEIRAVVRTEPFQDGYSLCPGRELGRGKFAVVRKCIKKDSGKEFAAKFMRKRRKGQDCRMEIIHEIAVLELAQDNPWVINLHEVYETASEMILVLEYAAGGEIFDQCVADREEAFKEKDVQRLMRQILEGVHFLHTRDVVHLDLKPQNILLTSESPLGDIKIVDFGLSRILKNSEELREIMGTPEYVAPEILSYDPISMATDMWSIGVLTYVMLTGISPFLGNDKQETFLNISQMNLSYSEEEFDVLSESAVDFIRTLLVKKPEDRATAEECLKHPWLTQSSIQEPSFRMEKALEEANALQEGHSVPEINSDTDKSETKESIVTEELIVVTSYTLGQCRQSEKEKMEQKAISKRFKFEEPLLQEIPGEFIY
Description: as §1, §2

STK33 = STK33 (Homo sapiens, UniProt Q9BYT3); assay: Eurofins kinase enzymatic radiometric assay; assay type: biochemical; set-up: purchased Eurofins; conditions: Km of ATP, 9-point curve in duplicate
Sequence of STK33 (Q9BYT3 whole entry): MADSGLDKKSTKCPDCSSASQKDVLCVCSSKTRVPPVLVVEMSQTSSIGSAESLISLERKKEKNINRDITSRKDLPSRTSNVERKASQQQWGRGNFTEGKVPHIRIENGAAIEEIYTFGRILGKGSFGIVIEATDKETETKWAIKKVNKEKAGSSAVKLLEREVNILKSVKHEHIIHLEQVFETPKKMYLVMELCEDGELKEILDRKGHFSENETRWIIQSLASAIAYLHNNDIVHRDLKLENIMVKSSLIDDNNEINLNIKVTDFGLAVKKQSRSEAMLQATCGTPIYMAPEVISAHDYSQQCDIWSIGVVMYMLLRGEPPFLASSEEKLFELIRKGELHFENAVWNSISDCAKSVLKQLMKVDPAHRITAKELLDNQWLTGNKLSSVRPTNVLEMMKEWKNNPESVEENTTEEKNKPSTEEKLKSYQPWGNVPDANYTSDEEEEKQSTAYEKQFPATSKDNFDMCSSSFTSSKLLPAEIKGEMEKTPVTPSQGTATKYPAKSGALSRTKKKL
Description: as §1, §2

MINK1/MINK = MINK1/MINK (Homo sapiens, UniProt Q8N4C8); assay: Eurofins kinase enzymatic radiometric assay; assay type: biochemical; set-up: purchased Eurofins; conditions: Km of ATP, 9-point curve in duplicate
Description: as §1, §2

PLK4 = PLK4 (Homo sapiens, UniProt O00444); assay: Eurofins kinase enzymatic radiometric assay; assay type: biochemical; set-up: purchased Eurofins; conditions: Km of ATP, 9-point curve in duplicate
Sequence of PLK4 (O00444 whole entry): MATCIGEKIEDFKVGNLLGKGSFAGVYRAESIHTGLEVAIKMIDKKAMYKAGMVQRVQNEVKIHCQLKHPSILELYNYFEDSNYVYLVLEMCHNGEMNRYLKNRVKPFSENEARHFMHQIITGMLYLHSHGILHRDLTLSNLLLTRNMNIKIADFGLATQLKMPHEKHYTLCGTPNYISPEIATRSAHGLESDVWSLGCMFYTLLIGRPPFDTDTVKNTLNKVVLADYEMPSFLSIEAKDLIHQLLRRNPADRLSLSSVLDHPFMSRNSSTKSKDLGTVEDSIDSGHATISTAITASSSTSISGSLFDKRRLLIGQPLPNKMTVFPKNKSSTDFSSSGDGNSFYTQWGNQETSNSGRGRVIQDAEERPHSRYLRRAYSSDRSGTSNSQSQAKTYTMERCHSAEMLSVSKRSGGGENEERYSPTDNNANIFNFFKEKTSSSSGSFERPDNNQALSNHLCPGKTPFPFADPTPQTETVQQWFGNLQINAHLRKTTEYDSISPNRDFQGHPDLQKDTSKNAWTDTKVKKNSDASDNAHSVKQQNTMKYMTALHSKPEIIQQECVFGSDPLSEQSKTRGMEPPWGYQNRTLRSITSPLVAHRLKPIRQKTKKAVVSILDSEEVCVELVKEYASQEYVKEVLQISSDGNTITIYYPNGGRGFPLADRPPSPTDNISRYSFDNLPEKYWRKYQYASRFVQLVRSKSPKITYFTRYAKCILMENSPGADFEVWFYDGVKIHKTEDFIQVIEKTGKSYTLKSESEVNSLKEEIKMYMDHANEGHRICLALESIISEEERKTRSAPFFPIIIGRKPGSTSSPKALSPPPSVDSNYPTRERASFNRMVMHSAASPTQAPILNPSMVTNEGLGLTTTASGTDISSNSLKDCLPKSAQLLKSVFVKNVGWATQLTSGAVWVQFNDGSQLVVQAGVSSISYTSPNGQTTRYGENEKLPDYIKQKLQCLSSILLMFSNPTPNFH
Description: as §1, §2

CHEK2 = CHEK2 (Homo sapiens, UniProt O96017); assay: Eurofins kinase enzymatic radiometric assay; assay type: biochemical; set-up: purchased Eurofins; conditions: Km of ATP, 9-point curve in duplicate
Description: as §1, §2

PHKG1 = PHKG1 (Homo sapiens, UniProt Q16816); assay: Eurofins kinase enzymatic radiometric assay; assay type: biochemical; set-up: purchased Eurofins; conditions: Km of ATP, 9-point curve in duplicate
Description: as §1, §2

PDGFRA = PDGFRA (Homo sapiens, UniProt P16234); assay: Eurofins kinase enzymatic radiometric assay; assay type: biochemical; set-up: purchased Eurofins; conditions: Km of ATP, 9-point curve in duplicate
Description: as §1, §2

STK17B/DRAK2 = target: T1, STK17B/DRAK2 (Homo sapiens, UniProt O94768); assay: Eurofins kinase enzymatic radiometric assay; assay type: biochemical; set-up: purchased Eurofins; conditions: Km of ATP, 9-point curve in duplicate
T1 sequence (O94768 1-372): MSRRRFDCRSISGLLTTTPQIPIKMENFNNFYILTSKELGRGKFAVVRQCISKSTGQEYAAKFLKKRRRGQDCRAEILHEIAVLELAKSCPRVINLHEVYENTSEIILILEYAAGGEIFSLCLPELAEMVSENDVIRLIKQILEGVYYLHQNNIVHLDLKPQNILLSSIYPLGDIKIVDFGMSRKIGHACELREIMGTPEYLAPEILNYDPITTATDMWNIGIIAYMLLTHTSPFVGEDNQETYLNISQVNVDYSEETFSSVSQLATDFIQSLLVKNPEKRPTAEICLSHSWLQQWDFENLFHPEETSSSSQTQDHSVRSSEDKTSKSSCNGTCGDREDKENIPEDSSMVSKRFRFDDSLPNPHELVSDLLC
Description: as §1, §2

[1] = tested on: panel of 224 recombinant kinases; set-up: method as in PMID 26501955; conditions: Nanosyn; cited from earlier work
PIM3 = PIM3 (Homo sapiens, UniProt Q86V86); set-up: purchased Eurofins; method as in earlier work; conditions: cited from earlier work

Compound: COc1ccc2[nH]c3c4[nH]c5ccc(OC)cc5c4c4c(c3c2c1)C(=O)NC4=O [GW296115]
- IC50 (PIM2): 10 nM
- IC50 (SGK3): > 10000 nM
- IC50 (DMPK): > 10000 nM
- IC50 (AURKC): 4100 nM
- IC50 (AXL): 160 nM
- IC50 (DAPK1): > 10000 nM
- IC50 (RPS6KA6/RSK4): 12 nM
- IC50 (ROS1): > 10000 nM
- IC50 (DAPK3/ZIPK): 100 nM
- IC50 (PRKG2/PKG2): 6.3 nM
- IC50 (LRRK2): 25 nM
- IC50 (DAPK2): 21 nM
- IC50 (STK17A/DRAK1): 28 nM
- IC50 (STK33): 110 nM
- IC50 (MINK1/MINK): 35 nM
- IC50 (PLK4): 17 nM
- IC50 (CHEK2): 2.6 nM
- IC50 (PHKG1): 20 nM
- IC50 (PDGFRA): 710 nM
- IC50 (STK17B/DRAK2): 5.5 nM
- inhibition at 100 nM of the 3 kinases inhibited > 90% at 1 μM [1]: > 70%
- TSA ΔTm at 10 μM (°C) (PIM3): 12.0 °C
